Test results reported in patent US6699825B2, “Acidic hard-surface antimicrobial cleaner” (S.C. Johnson & Son, Inc., priority 2001, dated 2004).

Assays:
[1] = test system: Klebsiella pneumoniae; test: EPA Non-Food Contact Sanitizer Test DIS/TSS-10, glass slide, 5% fetal bovine serum; assay type: cell-based; details: K. pneumoniae; dilute aqueous acidic solution; 1-minute contact
Description: (§1) Low-residue hard surface cleaner formulations of the present invention were evaluated for sanitizing efficacy under the United States Environmental Protection Agency's Non-Food Contact Sanitizer Test, DIS/TSS-10 (Jan. 7, 1982). As noted in specific examples, a 30 second or 1 minute contact time using a glass slide test surface was used. As these formulas are to be used as one-step antimicrobial cleaners, fetal bovine serum was added to the innoculum at a concentration of 5.0 percent by weight to simulate an organic soil load such as one would expect to find on a typical non-food contact surface prior to cleaning.
(§2) Efficacy of the test solutions was evaluated versus Staphylococcus aureus (S. aureus), Klebsiella pneumoniae (K. pneumoniae), and Salmonella choleraesius (S. choleraesius). As a control, parallel tests were conducted using a 0.01 percent solution of Triton X-100 (isooctylphenoxyl-polyethoxyethanol with 9-10 moles of oxyethylene) in an identical manner as the test solutions. The results for the test solutions were compared to the control and are reported as “Log Kill” of the test organism versus the control counts in Table 2. A “Log Kill” of 5 means that 99.999 percent of the organism has been killed.

[2] = test system: Staphylococcus aureus; test: as above; assay type: cell-based; details: S. aureus; dilute aqueous acidic solution; 1-minute contact
Description: as §1, §2

[3] = cited from earlier work

Row | Compound | antimicrobial synergy with low levels of organocarboxylic acids [1] | antimicrobial synergy with low levels of organocarboxylic acids [2] | Solubility in water at 20-25° C. [3] | miscibility in water [3]
1 | OCc1ccccc1 [BA, Benzyl Alcohol] | enhanced biocidal efficacy | enhanced biocidal efficacy | 3.8% | –
2 | CCCCCOCCO [EGPE, Ethylene Glycol n-Pentyl Ether] | enhanced biocidal efficacy | enhanced biocidal efficacy | 3.4% | –
3 | CC(C)O [IPA, Iso-propanol] | no significant antimicrobial synergy | no significant antimicrobial synergy | Infinite | completely miscible
4 | CCOCCOCCO [Carbitol, Diethylene Glycol Ethyl Ether] | no significant antimicrobial synergy | no significant antimicrobial synergy | Infinite | completely miscible
5 | COC(C)COC(C)CO (centres unmarked) [DPM, Dipropylene Glycol Methyl Ether] | no significant antimicrobial synergy | no significant antimicrobial synergy | Infinite | completely miscible
6 | CCCCCCOCCOCCO [DEGHE, Diethylene Glycol n-Hexyl Ether] | enhanced biocidal efficacy | enhanced biocidal efficacy | – | –
7 | OCCOc1ccccc1 [Eph, Ethylene Glycol Phenyl Ether] | enhanced biocidal efficacy | enhanced biocidal efficacy | 2.3% | –
